Results reported in ChEMBL document CHEMBL3045871, “Synthesis, biological screening and ADME prediction of benzylindole derivatives as novel anti-HIV-1, anti-fungal and anti-bacterial agents” (Med Chem Res, 2013).
Active and inactive are the calls of the source. The rule behind the calls is not given here.

Tests used:
Penicillium chrysogenum = assay: Antifungal activity against Penicillium chrysogenum; assay type: functional, organism-based
[1] = target: Human immunodeficiency virus type 1 reverse transcriptase (Human immunodeficiency virus 1) (UniProt Q72547); assay: Inhibition of Human immunodeficiency virus 1 RT assessed at 20 ug after 1 hr by spectrophotometric analysis
Salmonella typhi = assay: Antibacterial activity against Salmonella enterica subsp. enterica serovar Typhi; assay type: functional, organism-based
Candida albicans = assay: Antifungal activity against Candida albicans; assay type: functional, organism-based
Aspergillus niger = assay: Antifungal activity against Aspergillus niger; assay type: functional, organism-based
Aspergillus fumigatus = assay: Antifungal activity against Aspergillus fumigatus; assay type: functional, organism-based
Bacillus subtilis = assay: Antibacterial activity against Bacillus subtilis; assay type: functional, organism-based

SMILES	Activity (Penicillium chrysogenum)	inhibition [1]	Activity (Salmonella typhi)	Activity (Candida albicans)	Activity (Aspergillus niger)	Activity (Aspergillus fumigatus)	Activity (Bacillus subtilis)
CCOC(=O)/C(O)=C/C(=O)c1cn(Cc2ccc(Cl)cc2Cl)c2c(OC)ccc(OC)c12	Active	86.5%	Active	Active	Active	Active	–
COc1cc(OC)c2c(C(=O)/C=C(\O)C(=O)O)cn(Cc3ccc(Cl)cc3Cl)c2c1	–	79.2%	–	–	–	–	–
CCOC(=O)/C(O)=C/C(=O)c1cn(Cc2ccc(Cl)cc2Cl)c2cc(OC)c(OC)cc12	–	80.9%	–	Active	–	Active	Active
COc1cc2c(C(=O)/C=C(\O)C(=O)O)cn(Cc3ccc(Cl)cc3Cl)c2cc1OC	–	78.6%	–	–	–	–	–
CC(=O)N1CCN(c2ccc(OCC3COC(Cn4ccnc4)(c4ccc(Cl)cc4Cl)O3)cc2)CC1 (centres undefined)	–	–	–	Active	–	Active	–
COc1ccc2c(c(C(=O)/C=C(\O)C(=O)O)cn2Cc2ccc(Cl)cc2Cl)c1OC	–	78.2%	–	–	–	–	–
CCOC(=O)/C(O)=C/C(=O)c1cn(Cc2ccc(Cl)cc2Cl)c2ccc(OC)c(OC)c12	Active	87.7%	–	–	Active	–	Active
COc1ccc(OC)c2c1c(C(=O)/C=C(\O)C(=O)O)cn2Cc1ccc(Cl)cc1Cl	–	82.8%	–	–	–	–	–
CCOC(=O)/C(O)=C/C(=O)c1cn(Cc2ccc(Cl)cc2Cl)c2cc(OC)cc(OC)c12	Active	87.6%	–	Active	–	–	Active
